Data on three molecules can be found in patent publication US20130123481A1, “MODIFIED NUCLEOSIDES, NUCLEOTIDES, AND NUCLEIC ACIDS, AND USES THEREOF” (MODERNA THERAPEUTICS, priority 2011, published 2013).

Data set [1] deals with HeLa cells. The data set can be described thus: In vitro Screening in HeLa Cells - luciferase (RLU). Format: cell-based, human. More on the design: key to Protein (Luc; HeLa): the protein production of HeLa is judged by “+,” “+/−” and “−”; the protein production of HeLa is judged by “+,” “+/−” and “−”; the protein production of HeLa is judged by “+,” “+/−” and “−”. On the procedure: The 2′Fluoro-modified mRNA were then transfected into HeLa cells to assess protein production in a cell context and the same mRNA were also assessed in a cell-free rabbit reticulocyte system. A control of unmodified luciferase (natural luciferase) was used for both transcription experiments, a control of untreated and mock transfected (Lipofectamine 2000 alone) were also analyzed for the HeLa transfection and a control of no RNA was analyzed for the rabbit reticulysates.
For the HeLa transfection experiments, the day before transfection, 20,000 HeLa cells (ATCC no. CCL-2; Manassas, Va.) were harvested by treatment with Trypsin-EDTA solution (LifeTechnologies, Grand Island, N.Y.) and seeded in a total volume of 100 ul EMEM medium (supplemented with 10% FCS and 1× Glutamax) per well in a 96-well cell culture plate (Corning, Manassas, Va.). The cells were grown at […] in 5% CO2 atmosphere overnight. […] Lipofectamine 2000 (LifeTechnologies, Grand Island, N.Y.) was used as transfection reagent and 0.2 ul were diluted in 10 ul final volume of OPTI-MEM. After […] of incubation at room temperature, both solutions were combined and incubated an additional 15 minute at room temperature. Then the 20 ul combined solution was added to the 100 ul cell culture medium containing the HeLa cells and incubated at room temperature. After 18 to 22 hours of incubation cells expressing luciferase were lysed with 100 ul of Passive Lysis Buffer (Promega, Madison, Wis.) according to manufacturer instructions. Aliquots of the lysates were transferred to white opaque polystyrene 96-well plates (Corning, Manassas, Va.) and combined with 100 ul complete luciferase assay solution (Promega, Madison, Wis.). The lysate volumes were adjusted or diluted until no more than 2 mio relative light units (RLU) per well were detected for the strongest signal producing samples and the RLUs for each chemistry tested are shown in Table 42. The plate reader was a BioTek Synergy H1 (BioTek, Winooski, Vt.). The background signal of the plates without reagent was about 200 relative light units per well.
To evaluate using of 2′fluoro-modified mRNA in combination with other modification a series of mRNA were transcribed using either wild-type T7 polymerase (non-fluoro-containing compounds) or using mutant T7 polymerases (fluyoro-containing compounds) as described in Example 86. All modified mRNA were tested by in vitro transfection in HeLa cells.
After 18 to 22 hours of incubation cells expressing luciferase were lysed with 100 ul of Passive Lysis Buffer (Promega, Madison, Wis.) according to manufacturer instructions. Aliquots of the lysates were transferred to white opaque polystyrene 96-well plates (Corning, Manassas, Va.) and combined with 100 ul complete luciferase assay solution (Promega, Madison, Wis.). The lysate volumes were adjusted or diluted until no more than 2 mio relative light units (RLU) per well were detected for the strongest signal producing samples and the RLUs for each chemistry tested are shown in Table 44. The plate reader was a BioTek Synergy H1 (BioTek, Winooski, Vt.). The background signal of the plates without reagent was about 200 relative light units per well.

For data set [2], the target named is wild-type T7 polymerase (Escherichia phage T7, UniProt P00573). The experiment in a line: In Vitro Transcription with Wild-Type T7 Polymerase (transcription and capping yield). The following applies: Table 48 non-naturally occurring, Pass/Fail. The procedure: (§1) The luciferase and G-CSF modified mRNA were also subjected to an enzymatic capping reaction and each modified mRNA capping reaction was evaluated for yield by spectrophometic measurement (OD260) and correct size assessed using bioanalyzer.
Sequence of wild-type T7 polymerase (P00573 whole entry): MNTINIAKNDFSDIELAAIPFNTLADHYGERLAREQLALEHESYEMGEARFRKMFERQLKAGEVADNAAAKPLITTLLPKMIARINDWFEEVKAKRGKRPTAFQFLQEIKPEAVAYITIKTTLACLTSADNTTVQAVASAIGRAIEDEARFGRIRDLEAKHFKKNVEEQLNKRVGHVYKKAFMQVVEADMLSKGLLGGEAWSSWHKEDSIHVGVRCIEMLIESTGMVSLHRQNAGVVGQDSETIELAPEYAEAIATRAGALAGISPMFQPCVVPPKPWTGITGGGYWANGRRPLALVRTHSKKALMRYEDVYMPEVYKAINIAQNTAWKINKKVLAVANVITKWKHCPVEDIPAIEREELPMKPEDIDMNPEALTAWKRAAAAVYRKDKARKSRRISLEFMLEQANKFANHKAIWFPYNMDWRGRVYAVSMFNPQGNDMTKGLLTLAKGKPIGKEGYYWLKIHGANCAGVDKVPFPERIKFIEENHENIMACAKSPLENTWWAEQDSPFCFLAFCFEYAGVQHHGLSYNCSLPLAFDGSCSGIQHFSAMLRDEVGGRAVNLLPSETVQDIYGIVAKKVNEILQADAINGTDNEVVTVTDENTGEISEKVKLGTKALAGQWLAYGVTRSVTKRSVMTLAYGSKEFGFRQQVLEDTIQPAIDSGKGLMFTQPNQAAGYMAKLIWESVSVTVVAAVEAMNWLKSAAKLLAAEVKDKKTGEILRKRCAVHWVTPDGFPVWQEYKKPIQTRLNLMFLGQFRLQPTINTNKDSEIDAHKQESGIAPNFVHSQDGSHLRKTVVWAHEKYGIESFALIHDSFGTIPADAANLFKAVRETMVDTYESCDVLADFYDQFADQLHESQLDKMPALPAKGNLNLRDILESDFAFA

Data set [3] addresses T1, mutant T7 polymerase (Durascribe T7 Transcription kit) (Escherichia phage T7, UniProt P00573, Y639F).
T1 construct: purchased Epicentre, Madison, Wis; DS010925
The following applies: Table 48 non-naturally occurring, in vitro transcription using mutant T7 polymerase. The procedure:
as §1

Data set [4] deals with Rabbit Reticulocyte Lysate. The data set can be described thus: In Vitro Screening in Rabbit Reticulocyte Lysates - luciferase (RLU). Format: biochemical. The following applies: 250 ng 2′-fluoro-containing luciferase mRNA, 60 minutes, 30° C., background about 160 RLU. The procedure: The diluted luciferase was added to 40 ul of freshly prepared Rabbit Reticulocyte Lysate and the in vitro translation reaction was done in a standard 1.5 mL polypropylene reaction tube (Thermo Fisher Scientific, Waltham, Mass.) at 30° C. in a dry heating block. The translation assay was done with the Rabbit Reticulocyte Lysate (nuclease-treated) kit (Promega, Madison, Wis.) according to the manufacturer's instructions. The reaction buffer was supplemented with a one-to-one blend of provided amino acid stock solutions devoid of either Leucine or Methionine resulting in a reaction mix containing sufficient amounts of both amino acids to allow effective in vitro translation.
After 60 minutes of incubation, the reaction was stopped by placing the reaction tubes on ice. […] The volumes of the in vitro translation reactions were adjusted or diluted until no more than 2 mio relative light units (RLUs) per well were detected for the strongest signal producing samples and the RLUs for each chemistry tested are shown in Table 29. The plate reader was a BioTek Synergy H1 (BioTek, Winooski, Vt.). […]
The 2′Fluoro-modified mRNA were then transfected into HeLa cells to assess protein production in a cell context and the same mRNA were also assessed in a cell-free rabbit reticulocyte system. […]

Data set [5] concerns human PBMC, tumor necrosis factor alpha (TNF-alpha).
Data set [6] has as its system female BALB/C mice, interferon-alpha (IFN-alpha). The following applies: mouse, in vivo.
Data set [7] deals with PBMC, tumor necrosis factor-alpha (TNF-alpha). The experiment in a line: 2′Fluoro Chemistries in PBMC - TNF-alpha production. Format: cell-based, human. The following applies: G-CSF modified mRNA, ELISA, average of 2 donors. On the technique in general: In an ELISA, binding on a coated surface is turned into a signal by an enzyme label.
For data set [8], the system named is female BALB/C mice. The experiment in a line: In Vivo Detection of Innate Immune Response Study - human G-CSF protein in serum. The following applies: human G-CSF in mouse serum; I.M.; 8 hours after dosing. The procedure: Blood is collected at 8 hours after dosing.
For data set [9], the system named is PBMC, interferon-alpha (IFN-alpha). The data set can be described thus: 2′Fluoro Chemistries in PBMC - IFN-alpha production. Format: cell-based, human. The following applies: G-CSF modified mRNA, ELISA, average of 3 donors.

T1 sequence (P00573 whole entry Y639F): as the sequence (P00573 whole entry) above, with Y639F counted along it

Take 2′-F-adenosine: the “Protein (Luc; HeLa)” value in data set [1] (Table 48 non-naturally occurring, ** mutant T7 polymerase) is “−**”. In addition, the “IVT (G-CSF), first result” value in data set [2] (G-CSF mRNA in vitro transcription) is listed as “Fail/Fail**”. Further, in data set [2] (luciferase mRNA in vitro transcription), the “IVT (Luc), first result” value was “Fail”. In data set [3], the “IVT (G-CSF), second result **” value is recorded as “Fail/Fail**” and the “IVT (Luc), second result **” value was “Pass”.
Regarding “Natural Luciferase: natural luciferase mRNA (SEQ ID NO: 3), Cap1 [reference compound]”, the RLU was 2,159,968 RLU in [4]; 133,853.5 RLU in data set [1] (83 ng 2′fluoro-containing luciferase mRNA, Lipofectamine 2000, HeLa cells); 30,801 RLU in data set [1] (83 ng luciferase mRNA with combination of modifications, HeLa cells, 18 to 22 hours, background about 200 RLU).
For `CCOCc1nc2c(N)nc3ccccc3c2n1CC(C)(C)O` [Compound R-848], the “TNF-alpha: 3 Donor Average” value in [5] was found to be 1477 pg/mL. The same molecule showed an IFN-alpha expression in data set [6] of 40.97 pg/mL. The “TNF-alpha: 2 Donor Average (pg/ml)” value in data set [7] was 8,235 pg/ml. This molecule registered a G-CSF protein in data set [8] of 3.4 pg/mL. The “IFN-alpha: 3 Donor Average” value in data set [9] came to 45 pg/mL.
